Measurements: PubChem BioAssay (NCI)
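Dose response: 5 concentrations. Exposure: 48 h. Format: 96-well plates. Endpoint: linear interpolation; highest concentration if not reached. Abbreviation: GI50, concentration required for 50% inhibition of growth. At the TGI there is no net growth.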

What was measured:
Assay in all cases: DTP human tumour cell line panel, 48 h
786-0 renal = tested on: 786-0 renal
A498 renal = tested on: A498 renal
A549 NSCLC = tested on: A549 NSCLC
ACHN renal = tested on: ACHN renal
BT-549 breast = tested on: BT-549 breast
CCRF-CEM leukemia = tested on: CCRF-CEM leukemia
DU-145 prostate = tested on: DU-145 prostate
EKVX NSCLC = tested on: EKVX NSCLC
HCT-116 colon = tested on: HCT-116 colon
HCT-15 colon = tested on: HCT-15 colon
HOP-62 NSCLC = tested on: HOP-62 NSCLC
HOP-92 NSCLC = tested on: HOP-92 NSCLC
HS 578T breast = tested on: HS 578T breast
HT29 colon = tested on: HT29 colon
IGROV1 ovarian = tested on: IGROV1 ovarian
K-562 leukemia = tested on: K-562 leukemia
KM12 colon = tested on: KM12 colon
LOX IMVI melanoma = tested on: LOX IMVI melanoma
M14 melanoma = tested on: M14 melanoma
MALME-3M melanoma = tested on: MALME-3M melanoma
MCF7 breast = tested on: MCF7 breast
MDA-MB-435 = tested on: MDA-MB-435
MDA-N = tested on: MDA-N
MOLT-4 leukemia = tested on: MOLT-4 leukemia
NCI-H226 lung = tested on: NCI-H226 lung
NCI-H23 lung = tested on: NCI-H23 lung
NCI-H460 lung = tested on: NCI-H460 lung
OVCAR-3 ovarian = tested on: OVCAR-3 ovarian
OVCAR-5 ovarian = tested on: OVCAR-5 ovarian
OVCAR-8 ovarian = tested on: OVCAR-8 ovarian
PC-3 prostate = tested on: PC-3 prostate
RXF 393 renal = tested on: RXF 393 renal
SF-268 CNS = tested on: SF-268 CNS
SF-295 CNS = tested on: SF-295 CNS
SF-539 CNS = tested on: SF-539 CNS
SK-MEL-28 melanoma = tested on: SK-MEL-28 melanoma
SK-MEL-5 melanoma = tested on: SK-MEL-5 melanoma
SK-OV-3 ovarian = tested on: SK-OV-3 ovarian
SN12C renal = tested on: SN12C renal
SNB-19 CNS = tested on: SNB-19 CNS
SNB-75 CNS = tested on: SNB-75 CNS
SW-620 colon = tested on: SW-620 colon
T-47D breast = tested on: T-47D breast
TK-10 renal = tested on: TK-10 renal
U251 CNS = tested on: U251 CNS
UACC-257 melanoma = tested on: UACC-257 melanoma
UACC-62 melanoma = tested on: UACC-62 melanoma
UO-31 renal = tested on: UO-31 renal
CAKI-1 renal = tested on: CAKI-1 renal
COLO 205 colon = tested on: COLO 205 colon
HCC-2998 colon = tested on: HCC-2998 colon
HL-60(TB) leukemia = tested on: HL-60(TB) leukemia
MDA-MB-231 breast = tested on: MDA-MB-231 breast
NCI-H522 lung = tested on: NCI-H522 lung
NCI/ADR-RES ovarian = tested on: NCI/ADR-RES ovarian
OVCAR-4 ovarian = tested on: OVCAR-4 ovarian
RPMI-8226 leukemia = tested on: RPMI-8226 leukemia
SK-MEL-2 melanoma = tested on: SK-MEL-2 melanoma
SR leukemia = tested on: SR leukemia

For `CCCCCCOc1ccc(NC2=C(Cl)C(=O)c3ncccc3C2=O)cc1`, the TGI (786-0 renal) was 5.75 µM, the TGI (A498 renal) was over 10 µM and the TGI (A549 NSCLC) was 8.96 µM. For the same compound, the TGI (ACHN renal) was over 10 µM, the TGI (BT-549 breast) was 3.56 µM and the TGI (CCRF-CEM leukemia) was 5.96 µM. The TGI (DU-145 prostate) was 2.83 µM, the TGI (EKVX NSCLC) was over 10 µM and the TGI (HCT-116 colon) was 2.38 µM. For the same compound, the TGI (HCT-15 colon) was 4.64 µM, the TGI (HOP-62 NSCLC) was 3.88 µM and the TGI (HOP-92 NSCLC) was over 10 µM. The TGI (HS 578T breast) was 9 µM, the TGI (HT29 colon) was over 10 µM and the TGI (IGROV1 ovarian) was 7.85 µM. It also gave a TGI (K-562 leukemia) of over 10 µM, a TGI (KM12 colon) of 3.14 µM and a TGI (LOX IMVI melanoma) of 4.15 µM. The TGI (M14 melanoma) was 4.04 µM, the TGI (MALME-3M melanoma) was 3.77 µM and the TGI (MCF7 breast) was 2.63 µM. The TGI (MDA-MB-435) was 3.27 µM, the TGI (MDA-N) was 2.97 µM and the TGI (MOLT-4 leukemia) was over 10 µM. It also gave a TGI (NCI-H226 lung) of over 10 µM, a TGI (NCI-H23 lung) of 4.34 µM and a TGI (NCI-H460 lung) of 3.18 µM. It also gave a TGI (OVCAR-3 ovarian) of 6.25 µM, a TGI (OVCAR-5 ovarian) of over 10 µM and a TGI (OVCAR-8 ovarian) of over 10 µM. It also gave a TGI (PC-3 prostate) of 3.97 µM, a TGI (RXF 393 renal) of 3.7 µM and a TGI (SF-268 CNS) of 4.07 µM. It also gave a TGI (SF-295 CNS) of 3.59 µM, a TGI (SF-539 CNS) of 3.3 µM and a TGI (SK-MEL-28 melanoma) of 3.04 µM. The TGI (SK-MEL-5 melanoma) was 2.92 µM, the TGI (SK-OV-3 ovarian) was over 10 µM and the TGI (SN12C renal) was 3.12 µM. The TGI (SNB-19 CNS) was 4.51 µM, the TGI (SNB-75 CNS) was 3.93 µM and the TGI (SW-620 colon) was 5.38 µM. For the same compound, the TGI (T-47D breast) was 4.03 µM, the TGI (TK-10 renal) was over 10 µM and the TGI (U251 CNS) was 3.08 µM. The TGI (UACC-257 melanoma) was 4.54 µM, the TGI (UACC-62 melanoma) was 2.75 µM and the TGI (UO-31 renal) was 2.72 µM.

With `COc1ccc(-n2c(C)nc3c(c(C)nn3-c3ccccc3)c2=O)cc1` the GI50 (786-0 renal) was 0.0654 µM, the TGI (786-0 renal) was over 100 µM and the GI50 (A498 renal) was 0.0264 µM. For the same compound, the TGI (A498 renal) was 0.0843 µM, the GI50 (A549 NSCLC) was 0.107 µM and the TGI (A549 NSCLC) was over 100 µM. It also gave a GI50 (ACHN renal) of 0.0645 µM, a TGI (ACHN renal) of over 100 µM and a GI50 (BT-549 breast) of 0.123 µM. For the same compound, the TGI (BT-549 breast) was 33.8 µM, the GI50 (CAKI-1 renal) was 0.0461 µM and the TGI (CAKI-1 renal) was over 50.1 µM. For the same compound, the GI50 (CCRF-CEM leukemia) was 0.057 µM, the TGI (CCRF-CEM leukemia) was over 100 µM and the GI50 (COLO 205 colon) was 0.12 µM. It also gave a TGI (COLO 205 colon) of 1.93 µM, a GI50 (DU-145 prostate) of 0.29 µM and a TGI (DU-145 prostate) of over 100 µM. The GI50 (EKVX NSCLC) was 0.144 µM, the TGI (EKVX NSCLC) was over 100 µM and the GI50 (HCC-2998 colon) was 0.191 µM. The TGI (HCC-2998 colon) was over 100 µM, the GI50 (HCT-116 colon) was 0.0443 µM and the TGI (HCT-116 colon) was 7.91 µM. For the same compound, the GI50 (HCT-15 colon) was 0.0483 µM, the TGI (HCT-15 colon) was over 100 µM and the GI50 (HL-60(TB) leukemia) was 0.0353 µM. The TGI (HL-60(TB) leukemia) was 0.22 µM, the GI50 (HOP-62 NSCLC) was 0.0789 µM and the TGI (HOP-62 NSCLC) was over 100 µM. It also gave a GI50 (HOP-92 NSCLC) of 0.433 µM, a TGI (HOP-92 NSCLC) of 29.3 µM and a GI50 (HS 578T breast) of 0.0528 µM. For the same compound, the TGI (HS 578T breast) was over 100 µM, the GI50 (HT29 colon) was 0.0467 µM and the TGI (HT29 colon) was over 31.9 µM. The GI50 (IGROV1 ovarian) was 0.0701 µM, the TGI (IGROV1 ovarian) was over 100 µM and the GI50 (K-562 leukemia) was 0.0356 µM. The TGI (K-562 leukemia) was over 68.1 µM, the GI50 (KM12 colon) was 0.0532 µM and the TGI (KM12 colon) was over 100 µM. The GI50 (LOX IMVI melanoma) was 0.065 µM, the TGI (LOX IMVI melanoma) was over 100 µM and the GI50 (M14 melanoma) was 0.0491 µM. For the same compound, the TGI (M14 melanoma) was over 100 µM, the GI50 (MALME-3M melanoma) was 15.9 µM and the TGI (MALME-3M melanoma) was over 100 µM. The GI50 (MCF7 breast) was 0.036 µM, the TGI (MCF7 breast) was over 100 µM and the GI50 (MDA-MB-231 breast) was 0.311 µM. It also gave a TGI (MDA-MB-231 breast) of over 100 µM, a GI50 (MDA-MB-435) of 0.0305 µM and a TGI (MDA-MB-435) of 0.116 µM. The GI50 (MOLT-4 leukemia) was 0.196 µM, the TGI (MOLT-4 leukemia) was over 40.4 µM and the GI50 (NCI-H226 lung) was 0.207 µM. For the same compound, the TGI (NCI-H226 lung) was over 100 µM, the GI50 (NCI-H23 lung) was 0.218 µM and the TGI (NCI-H23 lung) was over 100 µM. It also gave a GI50 (NCI-H460 lung) of 0.0478 µM, a TGI (NCI-H460 lung) of over 40 µM and a GI50 (NCI-H522 lung) of 0.0375 µM. It also gave a TGI (NCI-H522 lung) of 9.1 µM, a GI50 (NCI/ADR-RES ovarian) of 0.0534 µM and a TGI (NCI/ADR-RES ovarian) of over 100 µM. The GI50 (OVCAR-3 ovarian) was 0.0414 µM, the GI50 (OVCAR-4 ovarian) was 1.11 µM and the TGI (OVCAR-4 ovarian) was over 100 µM. The GI50 (OVCAR-5 ovarian) was 0.298 µM, the TGI (OVCAR-5 ovarian) was over 100 µM and the GI50 (OVCAR-8 ovarian) was 0.177 µM. The TGI (OVCAR-8 ovarian) was over 100 µM, the GI50 (PC-3 prostate) was 0.0603 µM and the TGI (PC-3 prostate) was over 100 µM. The GI50 (RPMI-8226 leukemia) was 0.108 µM, the TGI (RPMI-8226 leukemia) was over 33.6 µM and the GI50 (RXF 393 renal) was 0.0609 µM. The TGI (RXF 393 renal) was over 100 µM, the GI50 (SF-268 CNS) was 1.76 µM and the TGI (SF-268 CNS) was over 100 µM. The GI50 (SF-295 CNS) was 0.0594 µM, the TGI (SF-295 CNS) was over 100 µM and the GI50 (SF-539 CNS) was 0.0471 µM. The GI50 (SK-MEL-2 melanoma) was 0.516 µM, the TGI (SK-MEL-2 melanoma) was over 100 µM and the GI50 (SK-MEL-28 melanoma) was 2.07 µM. For the same compound, the TGI (SK-MEL-28 melanoma) was over 100 µM, the GI50 (SK-MEL-5 melanoma) was 0.0615 µM and the TGI (SK-MEL-5 melanoma) was 4.6 µM. It also gave a GI50 (SK-OV-3 ovarian) of 1.08 µM, a TGI (SK-OV-3 ovarian) of over 100 µM and a GI50 (SN12C renal) of 0.442 µM. For the same compound, the TGI (SN12C renal) was over 100 µM, the GI50 (SNB-19 CNS) was 0.064 µM and the TGI (SNB-19 CNS) was over 100 µM. It also gave a GI50 (SNB-75 CNS) of 0.0276 µM, a TGI (SNB-75 CNS) of over 100 µM and a GI50 (SR leukemia) of 0.0391 µM. It also gave a TGI (SR leukemia) of over 58.7 µM, a GI50 (SW-620 colon) of 0.0415 µM and a TGI (SW-620 colon) of over 100 µM. The GI50 (T-47D breast) was 0.0403 µM, the TGI (T-47D breast) was 72.5 µM and the GI50 (TK-10 renal) was 9.02 µM. For the same compound, the TGI (TK-10 renal) was over 100 µM, the GI50 (U251 CNS) was 0.0614 µM and the TGI (U251 CNS) was over 100 µM. For the same compound, the GI50 (UACC-257 melanoma) was 5.82 µM, the TGI (UACC-257 melanoma) was 75.1 µM and the GI50 (UACC-62 melanoma) was 0.0426 µM. For the same compound, the TGI (UACC-62 melanoma) was over 100 µM, the GI50 (UO-31 renal) was 0.261 µM and the TGI (UO-31 renal) was over 43.4 µM.
